The results in this text go back to patent US20240383892A1, “PARTICLES OF IMIDAZO[4,5-b]PYRIDINE COMPOUND, PHARMACEUTICAL COMPOSITIONS, AND THEIR USE IN TREATING MEDICAL CONDITIONS” (Centrexion Therapeutics Corporation, priority 2023, published 2024).

What all share (assay type): physicochemical
Data set [1] can be described thus: Dynamic vapor sorption (hygroscopicity). The settings on record: 2 cycles of increasing and decreasing relative humidity at 25° C., FIG. 3. As for the experimental part: A dynamic vapor sorption isotherm plot of crystalline 3-(3-methoxy-4-((4-methoxybenzyl)oxy)benzyl)-6-(1-methyl-1H-pyrazol-4-yl)-3H-imidazo[4,5-b]pyridin-2-amine monohydrate Form 3 is provided in FIG. 3. The dynamic vapor sorption isotherm plot results are from the procedure where after a drying stage at 0% relative humidity, compound sample was exposed to 2 cycles of increasing and decreasing relative humidity at 25° C., with steps of 5% relative humidity, where mass of the sample was recorded throughout the experiment.

Data set [2] can be described thus: Stability comparison of crystalline forms: temperature of dehydration. The text has this:
Stability of crystalline 3-(3-methoxy-4-((4-methoxybenzyl)oxy)benzyl)-6-(1-methyl-1H-pyrazol-4-yl)-3H-imidazo[4,5-b]pyridin-2-amine monohydrate Form 3 was compared to crystalline 3-(3-methoxy-4-((4-methoxybenzyl)oxy)benzyl)-6-(1-methyl-1H-pyrazol-4-yl)-3H-imidazo[4,5-b]pyridin-2-amine monohydrate Form 1. The physical property analyzed was temperature of dehydration. Crystalline 3-(3-methoxy-4-((4-methoxybenzyl)oxy)benzyl)-6-(1-methyl-1H-pyrazol-4-yl)-3H-imidazo[4,5-b]pyridin-2-amine monohydrate Form 1 is that described in international patent application publication WO 2016/100677.

Data set [3] can be described thus: Particle size analysis, Malvern Mastersizer 2000. The settings on record: dispersant 0.2% (w/v) Igepal in RO water. The procedure:
Particle size analysis was performed on the particles using a Malvern Mastersizer 2000 particle size analyzer equipped with a Hydro2000S sample dispersion unit. Instrument parameters and experimental conditions are set forth below:
A 50 mg±5 mg of sample of particles was weighed and placed in a 20 mL plastic blood dilution vial. Five drops of dispersant (0.2% (w/v) Igepal in RO water) was added to the vial and mixed to a slurry using the flat end of a spatula. Dispersant (20 mL) was then added and stirred with a spatula to begin dispersion. The sample vial was placed onto a magnetic stir plate and stirred for 5 minutes. While stirring, we withdrew an aliquot of the dispersed sample using a transfer pipet and transferred it to the Hydro2000S until an obscuration of 10-30% was obtained. The sample was allowed to recirculate for 5 minutes at 2500 RPM prior to initiating the sample measurement.

For the molecule `COc1ccc(COc2ccc(Cn3c(N)nc4cc(-c5cnn(C)c5)cnc43)cc2OC)cc1` [Form 3, 3-(3-methoxy-4-((4-methoxybenzyl)oxy)benzyl)-6-(1-methyl-1H-pyrazol-4-yl)-3H-imidazo[4,5-b]pyridin-2-amine monohydrate], the “hygroscopicity (dynamic vapor sorption isotherm)” value in data set [1] was “not hygroscopic”. The molecule further registered a temperature of dehydration in data set [2] (heated) of 130 °C.
In data set [3], `COc1ccc(COc2ccc(Cn3c(N)nc4cc(-c5cnn(C)c5)cnc43)cc2OC)cc1` [Particles Prepared in Part I, 3-(3-methoxy-4-((4-methoxybenzyl)oxy)benzyl)-6-(1-methyl-1H-pyrazol-4-yl)-3H-imidazo[4,5-b]pyridin-2-amine monohydrate] displayed a Particle Size Parameter D10 of 18.6 µm, a Particle Size Parameter D50 of 56.5 µm and a Particle Size Parameter D90 of 131 µm.
With `COc1ccc(COc2ccc(Cn3c(N)nc4cc(-c5cnn(C)c5)cnc43)cc2OC)cc1` [Form 1, 3-(3-methoxy-4-((4-methoxybenzyl)oxy)benzyl)-6-(1-methyl-1H-pyrazol-4-yl)-3H-imidazo[4,5-b]pyridin-2-amine monohydrate], in data set [2] (under a stream of nitrogen gas), the temperature of dehydration entry is listed as “room temperature”.
